Columns and labels:
NHEK cells = experiment: Population doublings and telomere loss per population doubling of drug-treated NHEK's (qPCR); type: cell-based, human; conditions: passage 10 and 11 NHEK's, versus DMSO control, FIG. 8b
Description: Sub-confluent passage 2 NHEK's in T75 flasks were cultured in complete KSFM maintained at 5% CO2, 37° C. until ˜80% confluent as described in 1.5. These were subsequently passaged and accurate cell counts determined by Via-1 cassette NC3000 Image Cell Cytometer. An aliquot of 40,000 cells was then seeded into T25 flasks which were incubated for 24 hours in KKSFM at 5% CO2, 37° C. to allow cells to adhere. […] These cultures were then incubated for another 3 days at 5% CO2, 37° C. when confluency was approx 80%. At this point, cells were harvested, Via-1 counts carried out, 50,000 cells pelleted for DNA preparation (DNeasy® Blood & Tissue Kit, Qiagen UK, Cat No 69505) and 40,000 cells seeded into a fresh T-25 flask for each specific drug treatment. The whole procedure was then repeated 8 times until passage 11. Extracted DNA quality and quantity was determined with a QuickDrop DNA Spectrophotometer (Molecular Devices. Model 504 7178) and then this was used to analyse comparative telomere length in each sample by use of a Relative Human Telomerase Length Quantification qPCR Assay Kit (ScienCell™, Cat No 8908) with a Stratagen qPCR/Real Time PCR Machine. Model Mx3005P®. […] Analysis of relative telomere length was carried out on DNA extracted from passages 3-10 in triplicate using a qPCR Assay Kit (ScienCell™, Cat No 8908), according to the manufacturer's instructions.

[1] = Canine case studies: biological age by breed-specific telomere length (DNA-My-Dog); type: in vivo; conditions: for reduction in biological age: versus chronological age
Description: (§1) In 2017, a […] (D.O.B Jan. 5, 2008) female Lhasa Apso/Jack Russell/Shih Tzu cross-breed (confirmed by genetic breed analysis: DNA-My-Dog) with a body mass of 9 Kg, was treated with 0.6 gm/day of 22.2% Fenbendazole (Panacur® granules) which was given orally for 3 consecutive days/week for 1 month and this cycle was repeated every 3rd month giving 4 cycles/annum providing a total of 16×1 month treatment cycles spread over a period of 4 yrs up to the present day.
Subject C2A's chronological age was verified by microchip implantation date using the Petlog database and, in March 2022, a cheek epithelium swab was sent to DNA-My-Dog for genetic assessment of breed composition and biological age by analysis of breed-specific telomere length. The results, returned on the 30 Mar. 2022, reported a biological age of 3 yrs old. Three more treatment cycles were subsequently administered and a repeat biological age telomere test carried out on the 30 Sep. 2022 which also returned a biological age of 3 yrs old. […] Translating these findings to humans, a 14 yr old Lhasa Apso has an equivalent human age of about 72 whereas a 3 yr old has an equivalent human age of about 28. This indicates a potential reduction in human age of 44 yrs which would equate to a 61% reduction of biological age in humans.
(§2) In 2017, a 4 yr old Jack Russell/Poodle/Maltese cross-breed (Confirmed by genetic breed analysis: DNA-My-Dog) with a body mass of 9.2 Kg was treated with 1.0 gm/day of 22.2% Fenbendazole Panacur® granules for 3 days per week and 4 days without. The dosing schedule of 3 days with, 4 days without treatment per week was continued for 3 months after which the dose was reduced to 0.6 gm/day of Panacur® and treatment alternated between 1 month with and 1 month without for 19 months providing a total of 11×1 month treatment cycles over the whole time period. After this, treatment was discontinued for 2 years and 5 months up to 12 May 2022 when a cheek swab was taken for analysis of biological age and this was repeated 5 months later on the 30 Sep. 2022.
(§3) The initial reason for treating this animal was that it had been diagnosed with an anal sac adenocarcinoma and, at the time, it was decided to explore the use of Fenbendazole as an alternative treatment. […] Subject C2B's birth date was May 2014 giving a chronological age of 8 yrs which was verified by microchip implantation date using the Petlog database. Following the outlined treatment with Fenbendazole, in April 2022, a cheek epithelium swab was sent to DNA-My-Dog for assessment of breed composition and biological age by analysis of breed-specific telomere length. The result, returned on the 12 May 2022, reported a biological age of 1 yr old indicating a reduction in biological age of 7 yrs. which is equivalent to ˜90% reduction in biological age. […] After a further gap of 5 months without treatment, on the 30 Sep. […] However, unlike subject C2A, no treatment was given during this period so the most likely explanation is that the efficacy time-limit of the initial treatment has been exceeded.

[2] = Canine case studies: age-related pathologies and tumour observations; type: in vivo, dog
Description: as §1, §2, §3

[3] = Rat 4 month medicated feed study: relative telomere length in buccal swab DNA (qPCR); type: in vivo, Sprague-Dawley rats; conditions: buccal swabs after 4 months feed; control 1.37 (SD=0.38)
Excerpt: Seventy-eight Sprague-Dawley rats aged either 16 or 22 months were maintained with daily 12-hour light/dark cycles and allowed constant access to feed and water. The animals were bred and housed at the Cantacuzino National Medico-Military Institute for Research and Development, Bucharest 050096, Romania. […] A buccal swab was then taken from each animal using an OracollectDNA OCR-100 sampling device (DNA Genotek, Canada). DNA was extracted using a DNeasy® Blood & Tissue Kit (Qiagen UK, Cat No 69505) which was checked for purity and quantified with a QuickDrop Spectrophotometer (Molecular Devices, Model 504 7178). […] R8908) was used. Five consecutive samples from each of the three treatment groups were analysed on each 96 well PCR plate to minimize any inter-plate variability.

[4] = tested on: post-confluent NHEK cells; experiment: Growth of re-cultured post-confluent (cell-cell contact growth arrested) NHEK's; type: cell-based, human
[5] = dog C2A findings translated to equivalent human age

## COC(=O)Nc1nc2ccc(Sc3ccccc3)cc2[nH]1 [Fenbendazole, methyl 5-(phenylthio)-2-benzimidazole carbamate]
NHEK cells
  relative telomere loss per population doubling: greatest reduction
[1]; [5]
  potential reduction in human age: 44 yrs
  reduction of biological age in humans: 61%
[1]; dog C2A, 30 Sep. 2022, after three more treatment cycles
  biological age (repeat test): 3 yrs
[1]; dog C2A, chronological age 14 yrs, result 30 Mar. 2022, 0.6 gm/day Panacur granules 3 days/week, 1 month cycles over 4 yrs
  biological age: 3 yrs
[1]; dog C2A
  reduction in biological age: 11 yrs
[1]; dog C2A, over 4 years
  reduction in biological age: ~80%
[1]; dog C2B, 30 Sep. 2022, further 5 months without treatment
  biological age (repeat test): 3 yrs
[1]; dog C2B, chronological age 8 yrs, result 12 May 2022, 19 months treatment then 2 yrs 5 months without
  biological age: 1 yr
[2]; dog C2A, during 4 yr treatment
  body weight and physical activity: significant weight-loss and increased physical activity
  growth of teeth: activation of new growth of teeth
  skin conditions / subcutaneous lesions: normalization of skin and regression of subcutaneous lipoma like lesions
[2]; dog C2B
  persistence of anti-ageing effects after treatment is discontinued: at least 2 years
  visible signs of ageing: does not show any visible signs of ageing
[2]; dog C2B, during treatment
  anal sac adenocarcinoma tumour: regressed
[3]
  average telomere length, times that in DNA from a 30 month old comparator: 1.59 (SD=0.48)
[4]; treatment P3-P5 only, withdrawn following passage 6, 5 days, FIG. 5
  number of viable cells (Via-1 Assay) following withdrawal of drug: 9.7×10^4 cells/ml
[4]; treatment continued for passages P3-P6, 5 days after passage 6, FIG. 5
  number of viable cells (Via-1 Assay): 9.5×10^4 cells/ml

Source: patent US20250352518A1, “A BENZIMIDAZOLE COMPOUND WITH ANTIHELMINTHIC ACTIVITY FOR USE IN REVERSING, ARRESTING OR SLOWING DOWN CELLULAR AGEING IN A VERTEBRATE SUBJECT” (RAVAN BIO LIMITED, priority 2022, published 2025)
